Values quoted from earlier work, collected in paper PMC12298827, “Subchronic Toxicities of Four Per- and Polyfluoroalkyl Substances (PFASs) by Oral Exposure in Sprague–Dawley Rats” (Toxics, 2025).

Tested on: male and female rats
Details: cited from earlier work

In the case of `N.O=C(O)C(F)(F)C(F)(F)C(F)(F)F` [ammonium perfluorobutyrate], the “Effect on absolute and relative liver weights” value (28- and 90-day oral gavage ref 16) is listed as “significant increases in the absolute and relative liver weights only in male rats”.
In the case of `O=S(=O)(O)C(F)(F)C(F)(F)C(F)(F)C(F)(F)F` [perfluorobutane sulfonate], the “Effect on liver weights or bodyweights” value (doses of up to 600 mg/kg-day, 90-day oral gavage, male or female rats ref 21) is given as “did not affect the liver weights or bodyweights”.
